Reference: patent US20060079453A1, “Hla binding peptides and their uses” (priority 2002, published 2006)
No end group written: not given here.

Tests used:
Assay in all cases: biochemical
Format in all cases: binding
[1] = biological target: HLA-DR DRB4*0101 (DR53) (Homo sapiens, UniProt P01903+P13762, G164S); settings: DRB4 *0101
[2] = biological target: HLA-DR DRB1*1302 (DR13) (Homo sapiens, UniProt P01903+P01911, A100E/A169T/K41T/L162R/M171V/P40S/Q125H/Q178H/Q39Y/Q99D/R42S/S66N/T262R/V115G/W38E/Y61H); settings: DRBI *1302
[3] = biological target: HLA-DR DRB1*0301 (DR3) (Homo sapiens, UniProt P01903+P01911, A100K/A102G/A103R/A169T/F55Y/I96L/K41T/L162R/M171V/P40S/Q125H/Q178H/Q39Y/R42S/S66N/T106N/T262R/W38E/Y61H)
[4] = biological target: HLA-DR DRB3*0101 (DR52) (Homo sapiens, UniProt P01903+P79483)
[5] = biological target: HLA-DR DRB5*0101 (DR51) (Homo sapiens, UniProt P01903+Q30154); settings: DRB5 *0101
[6] = biological target: HLA-DR DRB1*0802 (DR8) (Homo sapiens, UniProt P01903+P01911, A100R/A103L/A169T/F76Y/H45Y/I96F/K41T/L162R/M171V/P40S/Q125H/Q178H/Q39Y/Q99D/R218S/R42G/S66Y/V115G/W38E)
[7] = biological target: HLA-DR DRB1*0401 (DR4) (Homo sapiens, UniProt P01903+P01911, A100K/A169T/F76Y/I96L/K127E/L162R/M171V/N62H/P40V/Q125Y/R42H/S133A/S149N/S66Y/V115G/V209L/W38E); settings: DRB1 *0401
[8] = biological target: HLA-DR DRB1*0701 (DR7) (Homo sapiens, UniProt P01903+P01911, A100R/A102G/A103Q/D57E/D86V/E43K/F76Y/K127E/L162R/M171V/P40G/Q125H/Q99D/R33Q/R42Y/R54Q/S133A/S66F/T210M/V115G/Y107V/Y59L/Y89S); settings: DRB1 *0701
[9] = biological target: HLA-DR DRB1*0101 (DR1) (Homo sapiens, UniProt P01903+P01911, A100R/D57E/F55L/F60I/F76Y/I96L/L162R/M171V/P40L/Q125E/R42F/V115G/Y59C); settings: DRB1 *0101
[10] = biological target: HLA-DR DRB1*0901 (DR9) (Homo sapiens, UniProt P01903+P01911, A100R/A103E/D57H/D86V/F55Y/F60I/F76Y/I96F/K127E/L162R/M171V/P40D/Q125H/Q99R/R33Q/R42F/S133A/S66N/T210M/V115G/W38K/Y107V/Y59G/Y89S); settings: DRB1 *0901
[11] = biological target: HLA-DR DRB1*1501 (DR15) (Homo sapiens, UniProt P01903+P01911); settings: DRBI *1501
[12] = biological target: HLA-DR DRB1*1101 (DR11) (Homo sapiens, UniProt P01903+P01911, A100R/A169T/A87E/I96F/K41T/L162R/M171V/P40S/Q125H/Q178H/Q39Y/Q99D/R42S/S66Y/T262R/V115G/W38E); settings: DRB1 *1101
Sequence of HLA-DR DRB1*1101 (DR11) (P01903 26-254 limits assumed, other chains not shown): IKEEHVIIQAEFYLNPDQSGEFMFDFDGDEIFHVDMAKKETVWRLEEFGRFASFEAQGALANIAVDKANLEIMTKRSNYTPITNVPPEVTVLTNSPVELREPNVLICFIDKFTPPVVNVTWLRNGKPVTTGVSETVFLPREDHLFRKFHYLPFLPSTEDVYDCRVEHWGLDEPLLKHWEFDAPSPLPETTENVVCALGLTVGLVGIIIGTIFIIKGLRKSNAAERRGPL

Sequence of HLA-DR DRB1*0301 (DR3) (P01903 26-254 limits assumed, other chains not shown): as above
Sequence of HLA-DR DRB1*1302 (DR13) (P01903 26-254 limits assumed, other chains not shown): as above

| Compound | IC50 [1] | IC50 [2] | IC50 [3] | IC50 [4] | IC50 [5] | IC50 [6] | IC50 [7] | IC50 [8] | IC50 [9] | IC50 [10] | IC50 [11] | IC50 [12] |
| --- | --- | --- | --- | --- | --- | --- | --- | --- | --- | --- | --- | --- |
| CC(C)C[C@H](NC(=O)[C@H](CCC(=O)O)NC(=O)[C@H](CCCCN)NC(=O)[C@H](C)N)C(=O)N[C@@H](CCCCN)C(=O)N[C@@H](Cc1ccccc1)C(=O)N[C@H](C(=O)N[C@H](C(=O)N[C@@H](CC(C)C)C(=O)N[C@H](C(=O)N[C@@H](Cc1ccccc1)C(=O)N[C@@H](CCCNC(=N)N)C(=O)N[C@@H](Cc1c[nH]cn1)C(=O)NCC(=O)N[C@@H](CC(=O)O)C(=O)O)C(C)C)[C@@H](C)O)C(C)C | 0.051 µM | 0.824 µM | 30 µM | 8.56 µM | 0.024 µM | 1.95 µM | 0.783 µM | – | – | – | – | – |
| CSCC[C@H](NC(=O)CNC(=O)[C@H](CC(C)C)NC(=O)[C@H](CCC(N)=O)NC(=O)[C@@H](NC(=O)[C@H](CC(C)C)NC(=O)[C@H](CCC(N)=O)NC(=O)CNC(=O)[C@@H](N)Cc1ccccc1)[C@@H](C)O)C(=O)N[C@@H](CCC(=O)O)C(=O)N[C@@H](CCC(N)=O)C(=O)N[C@@H](Cc1c[nH]cn1)C(=O)N[C@@H](Cc1ccc(O)cc1)C(=O)N[C@@H](CCC(=O)O)C(=O)N[C@@H](CC(C)C)C(=O)O | 0.543 µM | > 35 µM | – | > 14.4 µM | ≥ 100 µM | 110 µM | 3.21 µM | > 62.5 µM | 2.26 µM | > 187 µM | > 22.8 µM | – |
| CC[C@H](C)[C@H](NC(=O)[C@H](CO)NC(=O)[C@H](CO)NC(=O)[C@H](CC(=O)O)NC(=O)[C@H](C)NC(=O)[C@H](CC(N)=O)NC(=O)[C@@H](NC(=O)[C@H](Cc1ccc(O)cc1)NC(=O)[C@H](C)NC(=O)[C@@H](NC(=O)CN)C(C)C)[C@@H](C)CC)C(=O)N[C@@H](CCC(=O)O)C(=O)NCC(=O)N[C@@H](CC(N)=O)C(=O)N[C@@H](Cc1ccc(O)cc1)C(=O)O | 0.477 µM | – | – | 1.42 µM | 66.7 µM | 23.4 µM | 0.146 µM | 6.24 µM | – | 3.05 µM | 7.61 µM | > 40 µM |
| CC(C)C[C@H](NC(=O)[C@@H](NC(=O)CN)C(C)C)C(=O)N[C@H](C(=O)N[C@@H](Cc1c[nH]cn1)C(=O)N1CCC[C@H]1C(=O)N[C@@H](CCC(N)=O)C(=O)N[C@@H](Cc1c[nH]c2ccccc12)C(=O)N[C@H](C(=O)N[C@@H](CC(C)C)C(=O)N[C@H](C(=O)N[C@@H](C)C(=O)N[C@@H](C)C(=O)N[C@@H](Cc1c[nH]cn1)C(=O)N[C@@H](CS)C(=O)O)[C@@H](C)O)C(C)C)C(C)C | 0.0062 µM | 2.43 µM | 21.3 µM | > 10.7 µM | – | 1.93 µM | 0.067 µM | – | 0.087 µM | – | 0.066 µM | – |
| CC[C@H](C)[C@H](NC(=O)[C@H](CCC(N)=O)NC(=O)[C@@H](NC(=O)[C@H](Cc1ccccc1)NC(=O)[C@H](CC(N)=O)NC(=O)[C@H](Cc1ccc(O)cc1)NC(=O)[C@H](CC(C)C)NC(=O)[C@H](Cc1ccccc1)NC(=O)[C@@H](N)CCCCN)[C@@H](C)O)C(=O)N1CCC[C@H]1C(=O)N[C@@H](Cc1c[nH]cn1)C(=O)N[C@@H](CC(C)C)C(=O)N[C@@H](C)C(=O)NCC(=O)N[C@H](C(=O)O)[C@@H](C)O | 0.256 µM | 0.221 µM | – | 10.2 µM | 1.6 µM | 0.415 µM | – | 0.03 µM | 0.34 µM | 0.054 µM | – | 0.091 µM |
| CC[C@H](C)[C@H](NC(=O)[C@H](CO)NC(=O)[C@@H](NC(=O)CNC(=O)[C@H](CCC(=O)O)NC(=O)[C@@H]1CCCN1)C(C)C)C(=O)N[C@@H](Cc1c[nH]c2ccccc12)C(=O)N[C@@H](CC(N)=O)C(=O)N1CCC[C@H]1C(=O)N[C@H](C(=O)N[C@@H](CC(C)C)C(=O)N[C@@H](CC(C)C)C(=O)N[C@@H](Cc1c[nH]c2ccccc12)C(=O)N[C@@H](CCC(N)=O)C(=O)N1CCC[C@H]1C(=O)O)[C@@H](C)CC | 0.107 µM | – | – | 4.62 µM | 22.2 µM | 28.6 µM | 1.78 µM | 15 µM | – | 103 µM | 0.0072 µM | 30.9 µM |
| CC[C@H](C)[C@H](NC(=O)[C@@H](NC(=O)[C@H](Cc1c[nH]cn1)NC(=O)[C@@H](N)CCCNC(=N)N)C(C)C)C(=O)N[C@@H](Cc1ccc(O)cc1)C(=O)N[C@@H](C)C(=O)N1CCC[C@H]1C(=O)N[C@@H](CO)C(=O)N[C@@H](CO)C(=O)N[C@@H](Cc1c[nH]cn1)C(=O)N[C@@H](CC(N)=O)C(=O)N[C@@H](CCCCN)C(=O)N[C@@H](Cc1ccc(O)cc1)C(=O)N[C@@H](C)C(=O)NCC(=O)O | 5.29 µM | – | – | > 62.8 µM | 0.088 µM | 11.7 µM | 0.481 µM | 31.2 µM | 2.17 µM | 0.481 µM | – | 13.4 µM |
| CC(C)C[C@H](NC(=O)[C@@H](NC(=O)[C@H](CCC(N)=O)NC(=O)[C@H](Cc1c[nH]c2ccccc12)NC(=O)[C@@H]1CCCN1C(=O)[C@H](CCC(N)=O)NC(=O)[C@@H](N)CO)C(C)C)C(=O)N[C@H](C(=O)N[C@@H](C)C(=O)N[C@@H](CO)C(=O)N[C@@H](CCCNC(=N)N)C(=O)NCC(=O)N[C@@H](CCCNC(=N)N)C(=O)N[C@@H](C)C(=O)N[C@H](C(=O)O)C(C)C)C(C)C | 7.56 µM | 0.032 µM | > 81.8 µM | > 12.1 µM | 0.084 µM | 0.386 µM | 7.63 µM | – | 0.066 µM | – | 11.3 µM | – |
| AKTFLRTLVRGVPEY | 0.472 µM | 0.094 µM | 54.2 µM | 0.546 µM | 3.48 µM | 0.0092 µM | 0.208 µM | 0.025 µM | 0.104 µM | – | 0.829 µM | 0.0063 µM |
| GQRVPVSHSFPHPLY | 9.86 µM | 0.703 µM | – | > 14.9 µM | > 200 µM | > 245 µM | > 40 µM | 0.629 µM | 1.56 µM | 0.102 µM | – | > 200 µM |
| LFRVYSNFLRGKLKL | 2.33 µM | 0.08 µM | 6.16 µM | 8.98 µM | 0.0029 µM | 0.028 µM | 0.643 µM | 0.0055 µM | 0.043 µM | – | 0.0028 µM | 0.173 µM |
| LRMMNDQLMFLERAF | 0.05 µM | 1.31 µM | – | 1.57 µM | 0.758 µM | 2.49 µM | 0.392 µM | 17.5 µM | 2.7 µM | 4.6 µM | – | 1.83 µM |
| NMSLLKHQSLRPDED [NMSLLKHQSLRPDED] | – | > 35 µM | – | > 14.9 µM | > 100 µM | 26.5 µM | > 40 µM | – | 3.13 µM | 96.8 µM | > 30.3 µM | 25.8 µM |
| QWVLTAAHCLKKNSQ | 14.4 µM | > 35 µM | – | > 14.9 µM | 0.382 µM | 98 µM | > 40 µM | 3.4 µM | 0.895 µM | 4.81 µM | > 45.5 µM | – |
| RPGLLGASVLGLDDI | 22 µM | 2.06 µM | 35.8 µM | 30.2 µM | > 88.9 µM | > 61.2 µM | 6.52 µM | – | – | – | 6 µM | > 93.9 µM |
| VILLGRHSLFHPEDT | 10.7 µM | 0.543 µM | 8.74 µM | > 12.1 µM | ≥ 100 µM | 0.737 µM | 8.21 µM | 30.6 µM | 0.273 µM | – | 0.426 µM | – |
